Experimental data from US20260034252A1, “FIBROBLAST ACTIVATION PROTEIN-TARGETED COMPOSITIONS AND METHODS OF USE THEREOF” (Ratio Therapeutics, Inc., priority 2022, published 2026).

biological target: T1, FAP (Homo sapiens (Human), UniProt Q12884); test: surface plasmon resonance assay; assay type: binding; settings: read-out: affinity
T1 sequence (Q12884 whole entry): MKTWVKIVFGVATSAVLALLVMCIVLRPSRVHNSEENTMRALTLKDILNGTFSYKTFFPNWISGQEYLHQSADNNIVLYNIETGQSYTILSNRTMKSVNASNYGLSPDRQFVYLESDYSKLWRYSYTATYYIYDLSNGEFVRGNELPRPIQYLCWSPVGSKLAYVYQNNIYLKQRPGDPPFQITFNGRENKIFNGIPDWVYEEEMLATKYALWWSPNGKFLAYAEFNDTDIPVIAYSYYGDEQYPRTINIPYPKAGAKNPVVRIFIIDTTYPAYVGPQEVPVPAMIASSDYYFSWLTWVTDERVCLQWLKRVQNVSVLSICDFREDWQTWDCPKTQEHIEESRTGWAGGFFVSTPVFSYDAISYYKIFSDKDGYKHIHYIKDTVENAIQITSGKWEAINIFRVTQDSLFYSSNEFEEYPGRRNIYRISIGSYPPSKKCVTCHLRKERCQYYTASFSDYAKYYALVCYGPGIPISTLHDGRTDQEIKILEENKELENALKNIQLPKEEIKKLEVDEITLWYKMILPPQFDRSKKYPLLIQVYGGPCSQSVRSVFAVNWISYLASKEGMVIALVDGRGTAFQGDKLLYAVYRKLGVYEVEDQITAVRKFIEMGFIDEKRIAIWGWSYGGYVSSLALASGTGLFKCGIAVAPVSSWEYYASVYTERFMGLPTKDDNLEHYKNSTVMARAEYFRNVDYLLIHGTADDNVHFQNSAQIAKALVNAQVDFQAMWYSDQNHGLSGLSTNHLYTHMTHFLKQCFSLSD

Compound	Kd
CN(CCCN1CCN(C(=O)CN2CCN(CC(=O)O)CCN(CC(=O)O)CCN(CC(=O)O)CC2)CC1)c1ccc2nccc(C(=O)NCC(=O)N3CC(F)(F)C[C@H]3C#N)c2c1 [FAP-46]	0.255 nM

biological target: T1, FAP; test: FAP protease inhibition assay (FAM-labeled substrate peptide, microfluidic electrophoresis); assay type: biochemical; settings: enzyme 0.5 nM, substrate peptide 1 uM, 15 minutes pre-incubation, three hours for human FAP
Description: Protease reactions were assembled in 384 well plates (Greiner) in a total volume of 20 uL as described below.
Recombinant proteins were pre-diluted in assay buffer comprising of 100 mM HEPES, pH 7.5, 0.1% BSA, 0.01% Triton X-100, 1 mM DTT, and dispensed into 384 well plate (10 uL per well). Test compounds were serially pre-diluted in DMSO and added to the assay wells by acoustic dispensing (Labcyte Echo 550). Control samples (0%-inhibition in the absence of inhibitor, DMSO only) and 100%-inhibition (in the absence of enzyme) were assembled in replicates of four and used to calculate the %-inhibition in the presence of compounds. Concentration of DMSO was equalized to 1% in all samples.
Compounds were pre-incubated with enzymes for 15 minutes. Human FAP was obtained from Enzo, catalogue number BML-SE409-0010. […] Final concentration of enzymes were 0.5 nM. Final concentration of substrate peptides was 1 uM.
The reactions were allowed to proceed at room temperature. Incubation time was three hours for human FAP, 0.5 hours for mouse FAP.
Terminated plates were analyzed using a microfluidic electrophoresis instrument (Caliper LabChip® 3000, Caliper Life Sciences/Perkin Elmer). A change in relative intensity of the peptide substrate and cleaved product was the parameter measured. Activity in each test sample was determined as the product to sum ratio (PSR):P/(S+P), where P is the peak height of the product, and S is the peak height of the substrate. Percent inhibition (Pinh) was determined using the following equation: Pinh=(PSR0% inh−PSRcompound)/(PSR0% inh−PSR100% inh)*100, in which: PSRcompound is the product/sum ratio in the presence of compound, PSR0% inh is the product/sum ratio in the absence of compound and the PSR100% inh is the product/sum ratio in the absence of the enzyme.

Compound	IC50
2,2′,2″-(10-(8-(1-((4-((2-((R)-2-boronopyrrolidin-1-yl)-2-oxoethyl)carbamoyl)quinolin-7-yl)oxy)-2-oxo-6,9,12-trioxa-3-azapentadecanamido)-39-carboxy-48-(4-isobutylphenyl)-2,9,37,45-tetraoxo-13,16,19,22,25,28,31,34-octaoxa-3,10,38,44-tetraazaoctatetracontyl)-1,4,7,10-tetraazacyclo-dodecane-1,4,7-triyl)triacetic acid [RTX-1357R]	< 0.1 nM
CCCC(=O)NCCCC[C@H](NC(=O)[C@H](CCCCNC(=S)Nc1ccc(CC2CN(CC(=O)O)CCN(CC(=O)O)CCN2CC(=O)O)cc1)NC(=O)CCOCCOCCOCCNC(=O)COc1ccc2c(C(=O)NCC(=O)N3CCC[C@H]3C#N)ccnc2c1)C(=O)O (stereo partly shown) [RTX-1317S]	0.1 to 0.5 nM
CCCCCC(=O)NCCCC[C@H](NC(=O)[C@H](CCCCNC(=S)Nc1ccc(CC2CN(CC(=O)O)CCN(CC(=O)O)CCN2CC(=O)O)cc1)NC(=O)CCOCCOCCOCCNC(=O)COc1ccc2c(C(=O)NCC(=O)N3CCC[C@H]3C#N)ccnc2c1)C(=O)O (stereo partly shown) [RTX-1318S]	< 0.1 nM
CC(=O)NCCCC[C@H](NC(=O)[C@H](CCCCNC(=S)Nc1ccc(CC2CN(CC(=O)O)CCN(CC(=O)O)CCN2CC(=O)O)cc1)NC(=O)CCOCCOCCOCCNC(=O)COc1ccc2c(C(=O)NCC(=O)N3CCC[C@H]3B(O)O)ccnc2c1)C(=O)O (stereo partly shown) [RTX-1319R]	0.1 to 0.5 nM
CC(=O)NCCCC[C@H](NC(=O)[C@H](CCCCNC(=O)c1ccc(F)c(C#N)c1)NC(=O)CCOCCOCCOCCNC(=O)COc1ccc2c(C(=O)NCC(=O)N3CCC[C@H]3C#N)ccnc2c1)C(=O)O [RTX-1324S, (S)-2-[(S)-2-(3-{2-[2-(2-{2-[4-({2-[(S)-2-Cyano-1-pyrrolidinyl]-2-oxoethylamino}carbonyl)-7-quinolyloxy]acetylamino}ethoxy)ethoxy]ethoxy}propionylamino)-6-(3-cyano-4-fluorobenzoylamino)hexanoylamino]-6-acetylaminohexanoic Acid]	< 0.1 nM
CC(=O)NCCCC[C@H](NC(=O)[C@H](CCCCNC(=O)c1ccc(F)c(C(F)(F)F)c1)NC(=O)CCOCCOCCOCCNC(=O)COc1ccc2c(C(=O)NCC(=O)N3CCC[C@H]3C#N)ccnc2c1)C(=O)O [RTX-1325S]	0.5 to 5 nM
COc1ccc2c(C(=O)NCC(=O)N3CCC[C@H]3C#N)ccnc2c1 [RTX-1326S, 7-Methoxy-quinoline-4-carboxylic Acid [2-((S)-2-cyano-pyrrolidin-1-yl)-2-oxo-ethyl]-amide]	0.5 to 5 nM
CC(=O)NCCCC[C@H](NC(=O)[C@H](CCCCNC(=O)CN1CCN(CC(=O)O)CCN(CC(=O)O)CC1)NC(=O)CCOCCOCCOCCNC(=O)COc1ccc2c(C(=O)NCC(=O)N3CCC[C@H]3C#N)ccnc2c1)C(=O)O [RTX-1339S]	0.1 to 0.5 nM
CCCC(=O)NCCCC[C@H](NC(=O)[C@H](CCCCNC(=O)CN1CCN(CC(=O)O)CCN(CC(=O)O)CC1)NC(=O)CCOCCOCCOCCNC(=O)COc1ccc2c(C(=O)NCC(=O)N3CCC[C@H]3C#N)ccnc2c1)C(=O)O [RTX-1340S]	0.1 to 0.5 nM
CCCCCCCC(=O)NCCCC[C@H](NC(=O)[C@H](CCCCNC(=O)CN1CCN(CC(=O)O)CCN(CC(=O)O)CCN(CC(=O)O)CC1)NC(=O)CCOCCOCCOCCNC(=O)COc1ccc2c(C(=O)NCC(=O)N3CCC[C@H]3C#N)ccnc2c1)C(=O)O [RTX-1350S]	< 0.1 nM
CC(C)Cc1ccc(CCCC(=O)NCCCC[C@H](NC(=O)[C@H](CCCCNC(=O)CN2CCN(CC(=O)O)CCN(CC(=O)O)CCN(CC(=O)O)CC2)NC(=O)CCOCCOCCOCCNC(=O)COc2ccc3c(C(=O)NCC(=O)N4CCC[C@H]4C#N)ccnc3c2)C(=O)O)cc1 [RTX-1352S]	< 0.1 nM
CC(=O)NCCCC[C@H](NC(=O)[C@H](CCCCNC(=O)CN1CCN(CC(=O)O)CCN(CC(=O)O)CCN(CC(=O)O)CC1)NC(=O)CCOCCOCCOCCNC(=O)COc1ccc2c(C(=O)NCC(=O)N3CCC[C@H]3C#N)ccnc2c1)C(=O)O [RTX-1353S]	0.1 to 0.5 nM
CC(C)Cc1ccc(CC(=O)NCCCC[C@H](NC(=O)[C@H](CCCCNC(=O)CN2CCN(CC(=O)O)CCN(CC(=O)O)CCN(CC(=O)O)CC2)NC(=O)CCOCCOCCOCCNC(=O)COc2ccc3c(C(=O)NCC(=O)N4CCC[C@H]4C#N)ccnc3c2)C(=O)O)cc1 [RTX-1354S]	< 0.1 nM
CCCCCCCC(=O)NCCCC[C@H](NC(=O)[C@H](CCCCNC(=O)CN1CCN(CC(=O)O)CCN(CC(=O)O)CCN(CC(=O)O)CC1)NC(=O)CCOCCOCCOCCNC(=O)COc1ccc2c(C(=O)NCC(=O)N3CCC[C@H]3B(O)O)ccnc2c1)C(=O)O [RTX-1355R]	0.1 to 0.5 nM
CC(C)Cc1ccc(CCCC(=O)NCCCC[C@H](NC(=O)[C@H](CCCCNC(=O)CN2CCN(CC(=O)O)CCN(CC(=O)O)CCN(CC(=O)O)CC2)NC(=O)CCOCCOCCOCCNC(=O)COc2ccc3c(C(=O)NCC(=O)N4CCC[C@H]4B(O)O)ccnc3c2)C(=O)O)cc1 [RTX-1356R]	0.1 to 0.5 nM
CC(C)Cc1ccc(CC(=O)NCCCC[C@H](NC(=O)[C@H](CCCCNC(=O)CN2CCN(CC(=O)O)CCN(CC(=O)O)CCN(CC(=O)O)CC2)NC(=O)CCOCCOCCOCCNC(=O)COc2ccc3c(C(=O)NCC(=O)N4CCC[C@H]4B(O)O)ccnc3c2)C(=O)O)cc1 [RTX-1359R, 2-[2-(3-{2-[2-(2-{2-[4-({2-[(R)-2-(1,2-dihydroxaboro)-1-pyrrolidinyl]-2-oxoethylamino}-carbonyl)-7-quinolyloxy]acetylamino}ethoxy)ethoxy]ethoxy}propionylamino)-6-{2-[4,7,10-tris(carb-oxymethyl)-1,4,7,10-tetraaza-1-cyclododecyl]acetylamino}hexanoylamino]-6-[2-(p-isobutylphenyl)-acetylamino]hexanoic Acid]	< 0.1 nM
CCCCCC(=O)NCCCC[C@H](NC(=O)[C@H](CCCCNC(=O)CN1CCN(CC(=O)O)CCN(CC(=O)O)CCN(CC(=O)O)CC1)NC(=O)CCOCCOCCOCCNC(=O)COc1ccc2c(C(=O)NCC(=O)N3CCC[C@H]3C#N)ccnc2c1)C(=O)O [RTX-1360S]	< 0.1 nM
CCCCCC(=O)NCCCC[C@H](NC(=O)[C@H](CCCCNC(=O)CN1CCN(CC(=O)O)CCN(CC(=O)O)CCN(CC(=O)O)CC1)NC(=O)CCOCCOCCOCCNC(=O)COc1ccc2c(C(=O)NCC(=O)N3CCC[C@H]3B(O)O)ccnc2c1)C(=O)O [RTX-1361R]	< 0.1 nM
CCCCCC(=O)NCCCC[C@H](NC(=O)[C@H](CCCCNC(=O)CN1CCN(CC(=O)O)CCN(CC(=O)O)CC1)NC(=O)CCOCCOCCOCCNC(=O)COc1ccc2c(C(=O)NCC(=O)N3CCC[C@H]3C#N)ccnc2c1)C(=O)O [RTX-1363S, 2,2′-(7-((S)-17-(((S)-1-carboxy-5-hexanamidopentyl)carbamoyl)-1-((4-((2-((S)-2-cyanopyrrolidin-1-yl)-2-oxoethyl)carbamoyl)quinolin-7-yl)oxy)-2,15,23-trioxo-6,9,12-trioxa-3,16,22-triazatetracosan-24-yl)-1,4,7-triazonane-1,4-diyl)diacetic Acid]	< 0.1 nM
CCCCCC(=O)NCCCC[C@H](NC(=O)[C@H](CCCCNC(=O)CN1CCN2CCN(CC1)CC(=O)[O][Cu][O]C(=O)C2)NC(=O)CCOCCOCCOCCNC(=O)COc1ccc2c(C(=O)NCC(=O)N3CCC[C@H]3C#N)ccnc2c1)C(=O)O [RTX-1363S-Cu]	< 0.1 nM
CC(C)Cc1ccc(CC(=O)NCCCC[C@H](NC(=O)[C@H](CCCCNC(=S)Nc2ccc(CCOc3cc(CN4CCOCCOCCN(Cc5cccc(C(=O)O)n5)CCOCCOCC4)nc(C(=O)O)c3)cc2)NC(=O)CCOCCOCCOCCNC(=O)COc2ccc3c(C(=O)NCC(=O)N4CCC[C@H]4B(O)O)ccnc3c2)C(=O)O)cc1 [RTX-1399R, 4-(4-(3-((S)-1-((4-((2-((R)-2-boronopyrrolidin-1-yl)-2-oxoethyl)carbamoyl)quinolin-7-yl)oxy)-17-(((S)-1-carboxy-5-(2-(4-isobutylphenyl)acetamido)pentyl)carbamoyl)-2,15-dioxo-6,9,12-trioxa-3,16-diazahenicosan-21-yl)thioureido)phenethoxy)-6-((16-((6-carboxypyridin-2-yl)methyl)-1,4,10,13-tetraoxa-7,16-diazacyclooctadecan-7-yl)methyl)picolinic acid]	0.1 to 0.5 nM
